This note sets out measurements from US20240409585A1, “MACROCYCLIC IMMUNOMODULATORS” (priority 2021, published 2024).

Structures are written as SMILES. Numbered stars: 1 amine (or outer) side, 2 acyl side, 3 side chain; on linkers, the order of the positions; unused ones are H or OH. Bridge positions count the residues as written; N and C are the ends. Square brackets hold non-standard residues; d marks the D form. Peptide text beside a SMILES is read from it. * marks the point of attachment. ξ: configuration not given here. X44 = COc1cc(F)cc(-c2ccc(C[C@H](N[*:1])C(=O)[*:2])cc2)c1; Phe(4-COOH) = N[C@@H](Cc1ccc(C(=O)O)cc1)C(=O)O; Bip = N[C@@H](Cc1ccc(-c2ccccc2)cc1)C(=O)O; Phe(3-Me) = Cc1cccc(C[C@H](N)C(=O)O)c1; Val(3-OH) = CC(C)(O)[C@H](N)C(=O)O; 4Pal = N[C@@H](Cc1ccncc1)C(=O)O; Cha = N[C@@H](CC1CCCCC1)C(=O)O; Ile(3ξ) = CCC(C)[C@H](N)C(=O)O; Thr(3ξ) = CC(O)[C@H](N)C(=O)O; Dap(Me) = CNC[C@H](N)C(=O)O; dDab = NCC[C@@H](N)C(=O)O; Carboxymethyl = O=C(O)C*; NMeA = CN[C@@H](C)C(=O)O; Nle = CCCC[C@H](N)C(=O)O; dAbu = CC[C@@H](N)C(=O)O; Dab = NCC[C@H](N)C(=O)O; Dap = NC[C@H](N)C(=O)O

A word on the IC50: it is the concentration at which inhibition is half-maximal.

T1 sequence (Q15116 25-288): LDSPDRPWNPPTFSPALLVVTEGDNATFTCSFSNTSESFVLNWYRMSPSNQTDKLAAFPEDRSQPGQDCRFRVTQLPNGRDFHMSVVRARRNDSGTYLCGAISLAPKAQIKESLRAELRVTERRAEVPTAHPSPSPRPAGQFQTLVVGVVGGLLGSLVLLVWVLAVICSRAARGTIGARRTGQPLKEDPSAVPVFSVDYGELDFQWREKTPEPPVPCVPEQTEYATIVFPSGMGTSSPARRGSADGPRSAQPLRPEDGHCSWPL

This assay has as its target T1, PE-labeled human PD-L1-Ig binding to Jurkat cell line over-expressing human PD-1 (Jurkat-PD-1) (Homo sapiens, UniProt Q15116).
T1 construct: expressed in transfected cells; host or cells: Jurkat
The assay is described as follows: Jurkat-PD-1 Cell Binding High-Content Screening Assay (CBA): Method 1. To be noted: Jurkat-hPD-1 cells, PE-labeled PD-L1-Ig 20 nM final; read-out: Jurkat HPDL1 PD1 IC50 (uM) (Method 1).
For the compound `Cc1cccc(C[C@@H]2NC(=O)[C@H](CC(=O)O)NC(=O)[C@H](Cc3ccc(OCC(=O)O)cc3)NC(=O)[C@H](Cc3ccc(OCC(=O)O)cc3)NC(=O)CSC[C@@H](C(=O)N[C@@H](CCN)C(N)=O)NC(=O)[C@@H](CCN)NC(=O)[C@H](C(C)C)NC(=O)[C@H](CC3CCCCC3)NC(=O)[C@H](CCN)NC(=O)[C@@H](CC(C)C)NC(=O)[C@H](C)N(C)C(=O)[C@H](Cc3ccc(O)cc3)NC(=O)[C@H](Cc3ccc(-c4ccccc4)cc3)NC(=O)[C@H](Cc3ccc(O)cc3)NC2=O)c1` [Compound 1872] ({CH2CO}-Y(Carboxymethyl)Y(Carboxymethyl)D[Phe(3-Me)]Y[Bip]Y[NMeA][dL][Dab][Cha]V[dDab]C[Dab]-NH2; thioether N-14), the half-maximal inhibitory concentration (IC50) stood at 0.02 µM.
The figure for `CC(C)C[C@@H]1NC(=O)[C@H](Cc2c[nH]c3ccccc23)NC(=O)[C@H](CC(=O)O)NC(=O)[C@H](Cc2ccc(O)cc2)NC(=O)[C@H](Cc2ccncc2)NC(=O)CSC[C@@H](C(=O)NCC(N)=O)NC(=O)[C@H](CO)NC(=O)[C@H](C(C)C)NC(=O)[C@H](CC(C)C)NC(=O)[C@H](CC(N)=O)NC(=O)[C@@H](C)NC(=O)[C@H](C)N(C)C(=O)[C@H](C(C)C)NC(=O)[C@H](Cc2ccc(-c3ccccc3)cc2)NC1=O` [Compound 1722] ({CH2CO}-[4Pal]YDWL[Bip]V[NMeA][dA]NLVSCG-NH2; thioether N-14) is 0.01 µM.
`COc1cc(F)cc(-c2ccc(C[C@@H]3NC(=O)[C@H](C(C)C)NC(=O)[C@H](Cc4c[nH]c5ccccc45)NC(=O)[C@H](CC(=O)O)NC(=O)[C@H](Cc4ccc(O)cc4)NC(=O)[C@H](CC(N)=O)NC(=O)CSC[C@@H](C(=O)N[C@@H](C)C(N)=O)NC(=O)[C@H]([C@@H](C)O)NC(=O)[C@H](C(C)C)NC(=O)[C@H](CC(C)C)NC(=O)[C@H](CCN)NC(=O)[C@@H](CC(C)C)NC(=O)[C@H](C)N(C)C(=O)[C@H](CCCNC(=N)N)NC3=O)cc2)c1` [Compound 1223] ({CH2CO}-NYDWV[X44]R[NMeA][dL][Dab]LVTCA-NH2; thioether N-14): the IC50 came to 0.32 µM.
In the case of `CC(C)C[C@@H]1NC(=O)[C@H](CCN)NC(=O)[C@@H](CC(C)C)NC(=O)[C@H](C)N(C)C(=O)[C@H](CCCNC(=N)N)NC(=O)[C@H](Cc2ccc(-c3ccccc3)cc2)NC(=O)[C@H](C(C)C)NC(=O)[C@H](Cc2c[nH]c3ccccc23)NC(=O)[C@H](CC(=O)O)NC(=O)[C@H](Cc2ccc(O)cc2)NC(=O)[C@H](Cc2ccccc2)NC(=O)CSC[C@@H](C(=O)N[C@@H](CCC(=O)O)C(N)=O)NC(=O)[C@H]([C@@H](C)O)NC(=O)[C@H](C(C)C)NC1=O` [Compound 1175] ({CH2CO}-FYDWV[Bip]R[NMeA][dL][Dab]LVTCE-NH2; thioether N-14), the 50% inhibitory concentration (IC50) was found to be 0.12 µM.
As for `CC[C@H]1NC(=O)[C@H](C)N(C)C(=O)[C@H](CCCNC(=N)N)NC(=O)[C@H](Cc2ccc(-c3ccccc3)cc2)NC(=O)[C@H](C(C)C)NC(=O)[C@H](Cc2c[nH]c3ccccc23)NC(=O)[C@H](CC(=O)O)NC(=O)[C@H](Cc2ccc(O)cc2)NC(=O)[C@H](Cc2ccccc2)NC(=O)CSC[C@@H](C(=O)N[C@@H](C)C(N)=O)NC(=O)[C@H]([C@@H](C)O)NC(=O)[C@H](C(C)C)NC(=O)[C@H](CC(C)C)NC(=O)[C@H](CCCNC(=N)N)NC1=O` [Compound 1069] ({CH2CO}-FYDWV[Bip]R[NMeA][dAbu]RLVTCA-NH2; thioether N-14), the IC50 was determined as 0.22 µM.
The figure for `CC(C)C[C@@H]1NC(=O)[C@H](Cc2c[nH]c3ccccc23)NC(=O)[C@H](CC(=O)O)NC(=O)[C@H](Cc2ccc(O)cc2)NC(=O)[C@H](Cc2ccccc2)NC(=O)CSC[C@@H](C(=O)N[C@@H](C)C(N)=O)NC(=O)[C@H](CO)NC(=O)[C@H](C(C)C)NC(=O)[C@H](CC(C)C)NC(=O)[C@H](CC(N)=O)NC(=O)[C@@H](C)NC(=O)[C@H](C)N(C)C(=O)[C@H](CCC(=O)O)NC(=O)[C@H](Cc2ccc(-c3ccccc3)cc2)NC1=O` [Compound 1768] ({CH2CO}-FYDWL[Bip]E[NMeA][dA]NLVSCA-NH2; thioether N-14) is 0.04 µM; for `Cc1cccc(C[C@@H]2NC(=O)[C@H](CC(=O)O)NC(=O)[C@H](Cc3ccc(OCC(=O)O)cc3)NC(=O)[C@H](Cc3cnc[nH]3)NC(=O)CSC[C@@H](C(=O)N[C@H](C)C(N)=O)NC(=O)[C@H](CO)NC(=O)[C@H](C(C)(C)O)NC(=O)[C@H](CC3CCCCC3)NC(=O)[C@H](CCN)NC(=O)[C@@H](CC(C)C)NC(=O)[C@H](C)N(C)C(=O)[C@H](Cc3ccc(OCC(=O)O)cc3)NC(=O)[C@H](Cc3ccc(-c4ccccc4)cc3)NC(=O)[C@H](Cc3ccc(C(=O)O)cc3)NC2=O)c1` [Compound 2182] ({CH2CO}-HY(Carboxymethyl)D[Phe(3-Me)][Phe(4-COOH)][Bip]Y(Carboxymethyl)[NMeA][dL][Dab][Cha][Val(3-OH)]SC[dA]-NH2; thioether N-14) it is 0.09 µM; for `CC(C)C[C@@H]1NC(=O)[C@H](CC(N)=O)NC(=O)[C@@H](CC(C)C)NC(=O)[C@H](C)N(C)C(=O)[C@H](CCCNC(=N)N)NC(=O)[C@H](Cc2ccc(-c3ccccc3)cc2)NC(=O)[C@H](C(C)C)NC(=O)[C@H](Cc2c[nH]c3ccccc23)NC(=O)[C@H](CC(=O)O)NC(=O)[C@H](Cc2ccc(O)cc2)NC(=O)[C@H](CC(N)=O)NC(=O)CSC[C@@H](C(=O)N[C@@H](C)C(N)=O)NC(=O)[C@H]([C@@H](C)O)NC(=O)[C@H](C(C)C)NC1=O` [Compound 1245] ({CH2CO}-NYDWV[Bip]R[NMeA][dL]NLVTCA-NH2; thioether N-14) it is 0.1 µM.
As for `CCC(C)[C@@H]1NC(=O)[C@H](Cc2ccc(-c3ccccc3)cc2)NC(=O)[C@H](C(C)C)NC(=O)[C@H](Cc2c[nH]c3ccccc23)NC(=O)[C@H](CC(=O)O)NC(=O)[C@H](Cc2ccc(OCC(=O)O)cc2)NC(=O)[C@H](CNC)NC(=O)CSC[C@@H](C(=O)N[C@@H](CC(N)=O)C(N)=O)NC(=O)[C@H](C(C)O)NC(=O)[C@H](C(C)C)NC(=O)[C@H](CC2CCCCC2)NC(=O)[C@H](CN)NC(=O)[C@@H](CC(C)C)NC(=O)[C@H](C)N(C)C1=O` (stereo partly drawn) [Compound 2078] ({CH2CO}-[Dap(Me)]Y(Carboxymethyl)DWV[Bip][Ile(3ξ)][NMeA][dL][Dap][Cha]V[Thr(3ξ)]CN-NH2; thioether N-14), the IC50 amounted to 0.02 µM.
The figure for `CC(C)C[C@@H]1NC(=O)[C@H](CCCNC(=N)N)NC(=O)[C@@H](C(C)C)NC(=O)[C@H](C)N(C)C(=O)[C@H](CCCNC(=N)N)NC(=O)[C@H](Cc2ccc(-c3ccccc3)cc2)NC(=O)[C@H](C(C)C)NC(=O)[C@H](Cc2c[nH]c3ccccc23)NC(=O)[C@H](CC(=O)O)NC(=O)[C@H](Cc2ccc(O)cc2)NC(=O)[C@H](Cc2ccccc2)NC(=O)CSC[C@@H](C(=O)N[C@@H](C)C(N)=O)NC(=O)[C@H]([C@@H](C)O)NC(=O)[C@H](C(C)C)NC1=O` [Compound 1060] ({CH2CO}-FYDWV[Bip]R[NMeA][dV]RLVTCA-NH2; thioether N-14) is 0.11 µM; for `CCCC[C@@H]1NC(=O)[C@H](Cc2c[nH]c3ccccc23)NC(=O)[C@H](CC(=O)O)NC(=O)[C@H](Cc2ccc(OCC(=O)O)cc2)NC(=O)[C@H](C(C)O)NC(=O)CSC[C@@H](C(=O)N[C@@H](CC(N)=O)C(=O)O)NC(=O)[C@H](CO)NC(=O)[C@H](C(C)C)NC(=O)[C@H](CC(C)C)NC(=O)[C@H](CCN)NC(=O)[C@@H](CC(C)C)NC(=O)[C@H](C)N(C)C(=O)[C@H](C(C)CC)NC(=O)[C@H](Cc2ccc(-c3ccccc3)cc2)NC1=O` (stereo partly drawn) [Compound 2221] ({CH2CO}-[Thr(3ξ)]Y(Carboxymethyl)DW[Nle][Bip][Ile(3ξ)][NMeA][dL][Dab]LVSCN-OH; thioether N-14) it is 0.06 µM.
